Assay type in all cases: cell-based, human
In series [1] the test system is HLA-DR, HLA-DQ, HLA-DP. Put plainly: HLA class II restriction of epitope recognition by TCL (blocking mAbs). The note with it: anti-HLA-DR, -DP or -DQ mAbs. As for the experimental part: (§1) All culturing was performed in RPMI-1640 containing 2 mM L-glutamine, 100 IU/mL penicillin-streptomycin and 5% heat-inactivated human AB serum (Sigma-Aldrich, St Louis, USA) (cRPMI). Antigen-induced TCL proliferation was assessed by ^3H-thymidine (3H-TdR) uptake assays as described (Prickett et al. 2011 supra). A stimulation index (SI; cpm antigen-stimulated T cells/cpm unstimulated T cells) >2.5 was considered positive and all positive responses confirmed in >2 assays. HLA-restriction of epitope recognition by TCL was assessed using monoclonal antibodies (mAb) against HLA-DR (L243), HLA-DQ (SVP-L3) or HLA-DP (B7/21) to block epitope presentation as described (Prickett et al. 2011 supra). To allow detection of peptide-induced CD4+ T-cell proliferation within whole PBMC, 7-day cultures of CFSE-labelled PBMC were set up as described for TCL generation (Prickett et al. 2011 supra). At least 10,000 CD4^+ T cells were analyzed per sample and SI calculated as percentage of CD4^+CFSE^lo (proliferated) cells with antigen/percentage of CD4^+CFSE^lo cells without antigen (background). The detection threshold for a specific response in this assay was assessed by expanding peptide-specific TCL from proliferated CD4^+ cells over a range of SI values for three subjects. Specific TCL could be generated from divided T cells with SI as low as 1.1 in all three subjects (data not shown) allowing designation of an SI>1.1 as positive.
There is no identified HLA-II association with peanut allergy (Shreffler et al. Ann Allergy Asthma Immunol 2006; 96(6):865-9), therefore peptides selected for therapy must bind diverse HLA-II molecules for wide applicability. To determine the HLA-II type presenting each epitope, anti-HLA-DR, -DP or -DQ mAbs were used to block individual epitope presentation to T cells. […] At least two subjects and/or TCL were tested per epitope (FIG. 8).

For series [2], the system named is Ara h 1-specific CD4+ T-cell lines (TCL). Description: Antigen-induced TCL proliferation, 3H-thymidine uptake assay. The note with it: for Donor responder frequency for TCL recognition of Ara h 1 20-mer peptides: n=18 peanut-allergic subjects, SI≥2.5.
Source text: Ara h 1-specific oligoclonal TCL were generated from peripheral blood mononuclear cells (PBMC) of peanut-allergic subjects using 5,6-carboxyfluorescein diacetate succinimidylester (CFSE)-based methodology (Mannering et al. J Immunol Methods. 2005; 298(1-2):83-92) as described (Prickett et al. 2011 supra), with CPE ([…]), Ara h 1 (10 gg/mL) or 20-mer peptides spanning the Ara h 1 sequence (11 amino acid (aa) overlap (17 aa overlap for the last peptide); Table 5; 10 pg/mL/peptide) as the driving antigens. All TCL were tested for specificity (proliferation) to individual Ara h 1 20-mers (10 pg/mL) as well as CPE ([…]) and/or Ara h 1 (10 pg/mL) Core epitope sequences were mapped within selected 20-mers using peptide sets truncated from the N- or C-terminus of the 20-mer as described (Prickett et al. 2011 supra).
as §1

The test system of series [3] is basophils. Description: Basophil activation test (CD63 upregulation by flow cytometry). As for the experimental part:
Basophil activation was assessed by CD63 upregulation detected by flow cytometry as described (Drew et al. J Immunol. 2004; 173(9):5872-9). Positive controls were rabbit anti-human IgE antibody (7.5 ug/mL; DAKO Corporation, CA, USA), N-formyl-methionine-leucine-phenylalanine (fMLP) (0.4 ug/mL; Sigma) and CPE. CPE, Ara h 1 and peptides were tested over a 3-log concentration range (5, 0.5 and 0.05 ug/mL)

Entries after “also recorded” stand apart in the source; their conditions may differ. Where no end group is shown, it is not given here.

As to “ALMLPHFNSKAMVIVVV (Chemcially synthezised) [(442-458)]”, in series [1], the “HLA class II restriction (mAb that blocked epitope recognition)” value (shortened to “HLA class II restriction”) was “HLA-DR-restricted”. Take ALMLPHFNSKAMVIVVVNKG [compound 50]: the “Donor responder frequency for TCL recognition of Ara h 1 20-mer peptides” value in series [2] is listed as 33%. For the molecule FQNLQNHRIVQIEAKPNTLV [(206-225)], the “TCL stimulation / recognition (in words)” value in series [2] was “efficiently stimulated TCL specific for either epitope”. Turning to “GDVFIMPAAHPVAINASS (Chemcially synthezised) [(507-524)]”, the “HLA class II restriction” value in series [1] is “blocked by anti-HLA-DR for some TCL but by anti-HLA-DQ for others; also recorded: HLA-DQ restricted”. With “KAMVIVVVNKGTGNLELVAV (Chemcially Synthezised) [compound 51]”, in series [2], the “TCL stimulation / recognition (in words)” value is on record as “efficiently stimulated TCL specific for either epitope” and the “Donor responder frequency for TCL recognition of Ara h 1 20-mer peptides” value came out at 33%. Take “NNFGKLFEVKPDKKNPQLQ [(409-427), NNFGKLFEVKPDKKNPQLQ]”: the “Basophil activation (percentage of activated CD63hi basophils)” value in series [3] worked out at 8%.

Regarding “VEIKEGALMLPHFNSKA (Chemcially synthezised) [(436-452)]”, the “HLA class II restriction” value in series [1] is listed as “blocked by anti-HLA-DR for some TCL but by anti-HLA-DQ for others”.

For WSTRSSENNEGVIVKVSKE [(353-371)], in series [1], the “HLA class II restriction” value is “blocked by anti-HLA-DQ in both subjects tested”.

B1: Ara h 1: major peanut allergen, 7S seed storage glycoprotein or vicilin, enriched from CPE by liquid chromatography (protein, listed as Homo sapiens)
chain: MRGRVSPLMLLLGILVLASVSATHAKSSPYQKKTENPCAQRCLQSCQQEPDDLKQKACESRCTKLEYDPRCVYDPRGHTGTTNQRSPPGERTRGRQPGDYDDDRRQPRREEGGRWGPAGPREREREEDWRQPREDWRRPSHQQPRKIRPEGREGEQEWGTPGSHVREETSRNNPFYFPSRRFSTRYGNQNGRIRVLQRFDQRSRQFQNLQNHRIVQIEAKPNTLVLPKHADADNILVIQQGQATVTVANGNNRKSFNLDEGHALRIPSGFISYILNRHDNQNLRVAKISMPVNTPGQFEDFFPASSRDQSSYLQGFSRNTLEAAFNAEFNEIRRVLLEENAGGEQEERGQRRWSTRSSENNEGVIVKVSKEHVEELTKHAKSVSKKGSEEEGDITNPINLREGEPDLSNNFGKLFEVKPDKKNPQLQDLDMMLTCVEIKEGALMLPHFNSKAMVIVVVNKGTGNLELVAVRKEQQQRGRREEEEDEDEEEEGSNREVRRYTARLKEGDVFIMPAAHPVAINASSELHLLGFGINAENNHRIFLAGDKDNVIDQIEKQAKDLAFPGSGEQVEKLIKNQKESHFVSARPQSQSQSPSSPEKESPEKEDQEEENQGGKGPLLSILKAFN
Regarding B1, the “Basophil activation (percentage of activated CD63hi basophils)” value in series [3] is 80-90%.
